Common to all, as to type: in vivo, rat
For test [1], the system named is rats with medial frontal cortical contusions. Briefly: Cerebral edema (brain tissue water content) after medial frontal cortex contusion, Example 1. The conditions noted are these: 4 mg/kg in cyclodextrin, i.p. 1 h and s.c. 6 h post-injury; 2, 24 and 72 hours; compared to vehicle.
Description: Contusions to the medical frontal cortex (MFC) using a pneumatic impactor device were generated. Animals were anesthetized by injection of Nembutal (50 mg/kg, i.p) and placed in a stereotaxic apparatus, with body core temperature being maintained with a homeothermic heating blanket system. Using aseptic techniques, a midline incision was made in the scalp, and the fascia retracted to expose the cranium. A centered, bilateral craniotomy was made 3 mm anterior to bregma using a 6 mm diameter trephan. After the removal of the bone, the tip of the impactor was moved to AP:3.0; ML:0.0, checked for adequate clearance, retracted to its elevated position and lowered 3.5 mm DV, so it penetrated the cortex 2 mm. The contusion was made at a velocity of 2.25 m/s with a brain contact time of 0.5 seconds. Following this procedure, the wound cavity was thoroughly cleaned and all bleeding stopped before the fascia and scalp, were sutured closed. In all experiments, the rats' group identity was coded with regard to surgery and treatment to prevent experimenter bias during behavioral testing and later histological examination.
These experimental solutions were then diluted 1:1 with sterile water for a final concentration of HBC of 22.5%.
Sprague-Dawley male rats, approximately 90 days of age at the time of surgery, were used. Rats were housed in individual cages, with a 12:12 light:dark cycle. Food and water were provided ad libitum throughout the experiment. Control rats received sham surgeries and the rest received medial frontal cortical contusions as described in the general methods. The sham-operated controls were given vehicle (cyclodextrin). […] Treatment began one hour after the contusion was produced. […] Subsequently, a second subcutaneous injection 6 hours post-injury for absorption that is more gradual. […]
At 2, 24, and 72 hours the rats were anesthetized, decapitated, and their brains removed quickly from the cranial cavity. […] The brain was placed on a pre-weighed dish and the total weight of the sample was measured. […]
In test [2] the test system is rats with bilateral contusions of the medial prefrontal cortex. Briefly: Cell counts of Nissl-stained neurons (STR, GP, DMN, VMN), Example 6. Conditions: 4 mg/kg in peanut oil. As to the method:
(§1) Male Sprague-Dawley rats (300 g) were housed individually in wire cages and kept on a reverse light-dark cycle (0800-2000 h). Animals were assigned to one of four groups: (1) lesion (n=7); (2) lesion +3 days progesterone (LP3; n=7); (3) lesion +5 days progesterone (LP5; n=7); and (4) Sham (n=8). All procedures involving animals conformed to guidelines set forth in the Guide for the Care and Use of Laboratory Animals (U.S. Department of Health and Human Services, Pub no. 85-23, 1985) and were approved by the Emory University Institutional Animal Care and Use Committee.
Bilateral contusions of the medial prefrontal cortex were created by a pneumatic impactor device as previously described. Briefly, rats were given anesthetized with ketamine/xylazine (90 mg/kg; 10 mg/kg) and placed in a stereotaxic apparatus. A craniectomy (diameter 6 mm) was made over the midline of the prefrontal cortex with its center 1.5 mm AP to bregma. […]
Cell counts were done on an Olympus BH-2 microscope equipped with an eyepiece micrometer grid (sample area=40 μm^2 at ×400 magnification). […] Only cells with neuronal nuclei and intact membranes were counted as neurons.
Experienced individuals who were blind to treatment conditions of the study conducted all histological and behavioral analyses. All data were tested for normality and homoschedasticity before being analyzed by parametric analysis of variance (ANOVA). MWM results were analyzed using separate mixed-factorial (4 groups×5 days) analysis of variance (ANOVA) on each of the two 5-day testing periods (acquisition and retention respectively). Results of the BSN task were analyzed using the mixed-factorial ANOVA (4 groups×2 post-injury trials). […] Pearson r coefficients were calculated to determine whether significant correlations could be detected between histological (e.g., lesion size and cellular density) and behavioral parameters (e.g., acquisition and retention of the MWM task and measures of sensory neglect).

For test [3] the test system is unchanged. Briefly: Bilateral sensory neglect (BSN) task, Example 6. Conditions: 3 days (LP3); 6 and 20 days post injury. As to the method:
as §1
Bilateral contusions of the medial prefrontal cortex were created by a pneumatic impactor device as previously described. […]
Experienced individuals who were blind to treatment conditions of the study conducted all histological and behavioral analyses. All data were tested for normality and homoschedasticity before being analyzed by parametric analysis of variance (ANOVA). MWM results were analyzed using separate mixed-factorial (4 groups×5 days) analysis of variance (ANOVA) on each of the two 5-day testing periods (acquisition and retention respectively). Results of the BSN task were analyzed using the mixed-factorial ANOVA (4 groups×2 post-injury trials). […]
Measures of attentional abilities, using a bilateral sensory neglect (BSN) task, were recorded one day prior to surgery (baseline) and on postsurgical days 6 and 20. […]

The test system of test [4] is traumatic brain injury. Briefly: Morris water maze dose response, progesterone in cyclodextrin vehicle, Example 7. As to the method: The Morris Water Maize (MWM) consisted of a circular tank with a diameter of 133 cm filled with opaque water (20±1° C.; non-toxic Artista™ nontoxic white tempura paint) to a depth of 64 cm (23 cm from top of tank). A platform (11 cm×11 cm) was submerged to a depth of 2 cm and placed approximately 28 cm from the wall of the pool in the center of the northeast quadrant. The position of the platform will remain constant throughout the experiment. MWM testing began seven days after surgery. Each animal was tested for a total of 10 days (2 trials per day) in two 5-day blocks. At the start of each trial, the experimenter placed a rat into the pool at one of four starting positions, and at the same time, activate the computer-interfaced camera tracking system. Each rat was allowed to swim in the pool until it reached the platform or until 90 seconds has passed. […] Once a rat found the platform, it was left there for 20 seconds and then removed from the pool for an intertrial interval of 20 seconds. Each rat was then placed in the pool at another start position and the procedure described earlier was repeated. The performance of each rat was measured in terms of latency to platform, length of path to platform, and swim strategy, i.e., percent of total time spent in the outer versus inner annuli.
(§2) Surgery to induce a traumatic brain injury was performed as outlined in Example 1. Behavior testing using the Morris Water Maize was performed as outlined in Example 1 and the methods for the tactical adhesive removal were performed as outlined in Example 4.

In test [5] the test system is traumatic brain injury. Briefly: Sticker removal task (tactile adhesive removal) dose response, Example 7.
Description: On the 7th and 27th days post-injury, the rats will be assessed on their responsivity to focal somatosensory stimuli by requiring them to remove sticky paper from their forelimbs. Pairs of circular adhesive papers will be attached to the distal-radial areas of each forelimb and the animal will be returned to its home cage while the investigator holds the forepaws apart and keeps them away from the rat's mouth. The rats' latencies to remove the stimuli with their mouth will be recorded. The maximum length of a “test” trial will be 2 minutes, with each rat receiving four trials with 2 minute intertrial intervals.
as §2

“Also recorded” adds a separate entry of the source.

With `CC(=O)[C@H]1CC[C@H]2[C@@H]3CCC4=CC(=O)CC[C@]4(C)[C@H]3CC[C@]12C` [progesterone], the cerebral edema entry in test [1] was “intermediate between injured controls and the allopregnanolone-treated injured rats”. Moreover, the “injury-induced neuronal loss (STR, GP, DMN, VMN)” value in test [2] (3 days (LP3)) and in test [2] (5 days (LP5)) was “significant reduction of injury-induced neuronal loss in all brain regions examined” throughout. Besides, the “neuronal loss in the VMN” value in test [2] (5 days (LP5)) was “more effective than 3 days at attenuating neuronal loss in the VMN; also recorded: significant reductions in cell loss of the VMN”. Besides, in test [3], the BSN task performance result is given as “impaired on this task compared to control animals”. Moreover, the “Morris water maze performance” value in the test on traumatic brain injury [4] (high dose 32 mg/kg in a cyclodextrin-containing vehicle) is “did not show any beneficial effect”; in the test with traumatic brain injury [4] (low dose 8 mg/kg in a cyclodextrin-containing vehicle), “consistent improvement in Morris water maze performance”; with traumatic brain injury [4] (moderate dose 16 mg/kg in a cyclodextrin-containing vehicle), “consistent improvement in Morris water maze performance”. Moreover, the figures for the “sticker removal task (sensory neglect)” value in the test on traumatic brain injury [5] (high dose 32 mg/kg in cyclodextrin-containing carrier), in the test on traumatic brain injury [5] (low dose 8 mg/kg in cyclodextrin-containing carrier) and in the test with traumatic brain injury [5] (moderate dose 16 mg/kg in cyclodextrin-containing carrier) were “degraded to lesion control levels”, “initially produce behavioral recovery” and “improved to sham levels by day 21 post-injury”, respectively.
